Results published in US20240270762A1, “PENICILLIN-BINDING PROTEIN INHIBITORS” (priority 2021, published 2024).
≈ marks a conversion by molar mass, not a printed value.

What was measured:
[1] = target: T1, PBP3 from Acinetobacter baumannii (ATCC 19606) (Acinetobacter baumannii, UniProt A0ABX6CK25); experiment: Bocillin-FL fluorescence polarization competition binding, A. baumannii PBP3; conditions: fluorescence polarization competition binding assay using Bocillin-FL; read-out: A. baumannii PBP3 Potency
T1 sequence (A0ABX6CK25 64-610): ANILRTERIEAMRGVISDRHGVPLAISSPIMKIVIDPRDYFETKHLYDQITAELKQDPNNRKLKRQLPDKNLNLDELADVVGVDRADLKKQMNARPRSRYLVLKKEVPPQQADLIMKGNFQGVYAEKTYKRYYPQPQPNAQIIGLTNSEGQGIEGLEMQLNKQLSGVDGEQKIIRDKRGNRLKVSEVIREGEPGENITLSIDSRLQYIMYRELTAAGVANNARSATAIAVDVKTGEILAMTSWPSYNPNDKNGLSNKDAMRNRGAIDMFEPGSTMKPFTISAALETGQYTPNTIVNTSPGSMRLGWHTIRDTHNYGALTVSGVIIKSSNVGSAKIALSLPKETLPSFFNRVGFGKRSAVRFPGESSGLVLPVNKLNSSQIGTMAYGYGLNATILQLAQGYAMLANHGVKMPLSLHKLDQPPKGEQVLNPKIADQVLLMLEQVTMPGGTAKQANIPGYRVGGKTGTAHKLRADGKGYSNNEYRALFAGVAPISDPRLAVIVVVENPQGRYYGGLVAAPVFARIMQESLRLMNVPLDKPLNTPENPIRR
Procedure, shortened: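 Purified PBPs pre-incubated with inhibitor (E. coli PBP3 1.5 μM, 30 min; P. aeruginosa PBP3 0.75 μM, A. baumannii PBP1a 1 μM and PBP3 0.2 μM, 15 min), then Bocillin-FL 0.1 μM (0.05 μM for PBP1a) added; FP read up to 60 min. EC50 = concentration halving bound Bocillin-FL.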

[2] = tested on: P. aeruginosa ATCC 27853; experiment: microbe, parasite or virus in culture; type: cell-based; conditions: Pseudomonas aeruginosa, ATCC27853, read-out: Minimum inhibitory concentration, P. aeruginosa ATCC 27853
[3] = tested on: A. baumannii 1258916; experiment: microbe, parasite or virus in culture; type: cell-based, Acinetobacter baumannii; conditions: Acinetobacter baumannii, 1258916, read-out: MIC, A. baumannii 1258916
[4] = tested on: B. thailandensis ATCC 700388; experiment: microbe, parasite or virus in culture; type: cell-based; conditions: Burkholderia thailandensis, ATCC700388, read-out: Minimum inhibitory concentration (MIC), B. thailandensis ATCC 700388

Structure (SMILES)	IC50 [1] [µM]	MIC [2] [µg/mL]	MIC [3] [µg/mL]	MIC [4] [µg/mL]
O=C(NCCCN1CCN(C(=O)NC(C(=O)N[C@H]2Cc3ccc(F)c(C(=O)O)c3OB2O)c2cc(F)c(O)c(O)c2Cl)C(=O)C1=O)c1cc(F)c(F)c(O)c1F (stereo partly drawn) [Example 404, (3R)-3-(2-(2-chloro-5-fluoro-3,4-dihydroxyphenyl)-2-(2,3-dioxo-4-(3-(2,4,5-trifluoro-3-hydroxybenzamido)propyl)piperazine-1-carboxamido)acetamido)-7-fluoro-2-hydroxy-3,4-dihydro-2H-benzo[e][1,2]oxaborinine-8-carboxylic acid]	< 10	2 to 4 (≈ 2.46 to 4.91 µM)	2 to 4 (≈ 2.46 to 4.91 µM)	2 to 4 (≈ 2.46 to 4.91 µM)
O=C(NCCCN1CCN(C(=O)NC(C(=O)N[C@H]2Cc3ccc(F)c(C(=O)O)c3OB2O)c2cc(F)c(O)c(O)c2Cl)C(=O)C1=O)c1cccc(O)c1F (stereo partly drawn) [Example 406, (3R)-3-(2-(2-chloro-5-fluoro-3,4-dihydroxyphenyl)-2-(4.-(3-(2-fluoro-3-hydroxybenzamido)propyl)-2,3-dioxopiperazine-1-carboxamido)acetamido)-7-fluoro-2-hydroxy-3,4-dihydro-2H-benzo[e][1,2]oxaborinine-8-carboxylic acid]	< 10	< 1	2 to 4 (≈ 2.57 to 5.14 µM)	2 to 4 (≈ 2.57 to 5.14 µM)
O=C(NCCCN1CCN(C(=O)NC(C(=O)N[C@H]2Cc3ccc(F)c(C(=O)O)c3OB2O)c2cc(F)c(O)c(O)c2Cl)C(=O)C1=O)c1cc(O)ccc1F (stereo partly drawn) [Example 407, (3R)-3-(2-(2-chloro-5-fluoro-3,4-dihydroxyphenyl)-2-(4-(3-(2-fluoro-5-hydroxybenzamido)propyl)-2,3-dioxopiperazine-1-carboxamido)acetamido)-7-fluoro-2-hydroxy-3,4-dihydro-2H-benzo[e][1,2]oxaborinine-8-carboxylic acid]	< 10	< 1	2 to 4 (≈ 2.57 to 5.14 µM)	2 to 4 (≈ 2.57 to 5.14 µM)
O=C(NCCCN1CCN(C(=O)NC(C(=O)N[C@H]2Cc3ccc(F)c(C(=O)O)c3OB2O)c2cc(F)c(O)c(O)c2Cl)C(=O)C1=O)c1cc(O)ccc1Cl (stereo partly drawn) [Example 408, (3R)-3-(2-(2-chloro-5-fluoro-3,4-dihydroxyphenyl)-2-(4-(3-(2-chloro-5-hydroxybenzamido)propyl)-2,3-dioxopiperazine-1-carboxamido)acetamido)-7-fluoro-2-hydroxy-3,4-dihydro-2H-benzo[e][1,2]oxaborinine-8-carboxylic acid]	< 10	< 1	2 to 4 (≈ 2.52 to 5.04 µM)	2 to 4 (≈ 2.52 to 5.04 µM)
O=C(NCCCN1CCN(C(=O)NC(C(=O)N[C@H]2Cc3ccc(F)c(C(=O)O)c3OB2O)c2cc(F)c(O)c(O)c2Cl)C(=O)C1=O)c1ccc(F)c(O)c1 (stereo partly drawn) [Example 409, (3R)-3-(2-(2-chloro-5-fluoro-3,4-dihydroxyphenyl)-2-(4-(3-(4-fluoro-3-hydroxybenzamido)propyl)-2,3-dioxopiperazine-1-carboxamido)acetamido)-7-fluoro-2-hydroxy-3,4-dihydro-2H-benzo[e][1,2]oxaborinine-8-carboxylic acid]	< 10	< 1	2 to 4 (≈ 2.57 to 5.14 µM)	2 to 4 (≈ 2.57 to 5.14 µM)
O=C(NCCCN1CCN(C(=O)NC(C(=O)N[C@H]2Cc3ccc(F)c(C(=O)O)c3OB2O)c2cc(F)c(O)c(O)c2Cl)C(=O)C1=O)c1cc(O)cc(F)c1 (stereo partly drawn) [Example 410, (3R)-3-(2-(2-chloro-5-fluoro-3,4-dihydroxyphenyl)-2-(4-(3-(3-fluoro-5-hydroxybenzamido)propyl)-2,3-dioxopiperazine-1-carboxamido)acetamido)-7-fluoro-2-hydroxy-3,4-dihydro-2H-benzo[e][1,2]oxaborinine-8-carboxylic acid]	< 10	< 1	2 to 4 (≈ 2.57 to 5.14 µM)	2 to 4 (≈ 2.57 to 5.14 µM)
O=C(NCCCN1CCN(C(=O)NC(C(=O)N[C@H]2Cc3ccc(F)c(C(=O)O)c3OB2O)c2cc(F)c(O)c(O)c2Cl)C(=O)C1=O)c1ccc(F)c(O)c1F (stereo partly drawn) [Example 411, (3R)-3-(2-(2-chloro-5-fluoro-3,4-dihydroxyphenyl)-2-(4-(3-(2,4-difluoro-3-hydroxybenzamido)propyl)-2,3-dioxopiperazine-1-carboxamido)acetamido)-7-fluoro-2-hydroxy-3,4-dihydro-2H-benzo[e][1,2]oxaborinine-8-carboxylic acid]	< 10	< 1	2 to 4 (≈ 2.51 to 5.03 µM)	2 to 4 (≈ 2.51 to 5.03 µM)
O=C(NCCCN1CCN(C(=O)NC(C(=O)N[C@H]2Cc3ccc(F)c(C(=O)O)c3OB2O)c2cc(F)c(O)c(O)c2Cl)C(=O)C1=O)c1ccc(F)c(O)c1Cl (stereo partly drawn) [Example 412, (3R)-3-(2-(4-(3-(2-chloro-4-fluoro-3-hydroxybenzamido)propyl)-2,3-dioxopiperazine-1-carboxamido)-2-(2-chloro-5-fluoro-3,4-dihydroxyphenyl)acetamido)-7-fluoro-2-hydroxy-3,4-dihydro-2H-benzo[e][1,2]oxaborinine-8-carboxylic acid]	< 10	< 1	2 to 4 (≈ 2.46 to 4.92 µM)	2 to 4 (≈ 2.46 to 4.92 µM)
O=C(NCCCN1CCN(C(=O)NC(C(=O)N[C@H]2Cc3ccc(F)c(C(=O)O)c3OB2O)c2cc(F)c(O)c(O)c2Cl)C(=O)C1=O)c1c(F)ccc(O)c1F (stereo partly drawn) [Example 413, (3R)-3-(2-(2-chloro-5-fluoro-3,4-dihydroxyphenyl)-2-(4-(3-(2,6-difluoro-3-hydroxybenzamido)propyl)-2,3-dioxopiperazine-1-carboxamido)acetamido)-7-fluoro-2-hydroxy-3,4-dihydro-2H-benzo[e][1,2]oxaborinine-8-carboxylic acid]	< 10	< 1	2 to 4 (≈ 2.51 to 5.03 µM)	2 to 4 (≈ 2.51 to 5.03 µM)
O=C(NCCCN1CCN(C(=O)NC(C(=O)N[C@H]2Cc3ccc(F)c(C(=O)O)c3OB2O)c2cc(F)c(O)c(O)c2Cl)C(=O)C1=O)c1c(F)ccc(O)c1Cl (stereo partly drawn) [Example 414, (3R)-3-(2-(2-chloro-5-fluoro-3,4-dihydroxyphenyl)-2-(4-(3-(2-chloro-6-fluoro-3-hydroxybenzamido)propyl)-2,3-dioxopiperazine-1-carboxamido)acetamido)-7-fluoro-2-hydroxy-3,4-dihydro-2H-benzo[e][1,2]oxaborinine-8-carboxylic acid]	< 10	< 1	2 to 4 (≈ 2.46 to 4.92 µM)	2 to 4 (≈ 2.46 to 4.92 µM)
O=C(NCCCN1CCN(C(=O)NC(C(=O)N[C@H]2Cc3ccc(F)c(C(=O)O)c3OB2O)c2cc(F)c(O)c(O)c2Cl)C(=O)C1=O)c1cc(O)c(F)c(O)c1F (stereo partly drawn) [Example 415, (3R)-3-(2-(2-chloro-5-fluoro-3,4-dihydroxyphenyl)-2-(4-(3-(2,4-difluoro-3,5-dihydroxybenzamido)propyl)-2,3-dioxopiperazine-1-carboxamido)acetamido)-7-fluoro-2-hydroxy-3,4-dihydro-2H-benzo[e][1,2]oxaborinine-8-carboxylic acid]	< 10	< 1	2 to 4 (≈ 2.46 to 4.93 µM)	8 to 16 (≈ 9.85 to 19.7 µM)
O=C(NCCCN1CCN(C(=O)NC(C(=O)N[C@H]2Cc3ccc(F)c(C(=O)O)c3OB2O)c2cc(F)c(O)c(O)c2Cl)C(=O)C1=O)c1cc(O)c(F)c(O)c1 (stereo partly drawn) [Example 416, (3R)-3-(2-(2-chloro-5-fluoro-3,4-dihydroxyphenyl)-2-(4-(3-(4-fluoro-3,5-dihydroxybenzamido)propyl)-2,3-dioxopiperazine-1-carboxamido)acetamido)-7-fluoro-2-hydroxy-3,4-dihydro-2H-benzo[e][1,2]oxaborinine-8-carboxylic acid]	< 10	< 1	< 1	< 1
O=C(NCCCN1CCN(C(=O)NC(C(=O)N[C@H]2Cc3ccc(F)c(C(=O)O)c3OB2O)c2cc(F)c(O)c(O)c2Cl)C(=O)C1=O)c1ccc(O)c(F)c1Cl (stereo partly drawn) [Example 418, (3R)-3-(2-(4-(3-(2-chloro-3-fluoro-4-hydroxybenzamido)propyl)-2,3-dioxopiperazine-1-carboxamido)-2-(2-chloro-5-fluoro-3,4-dihydroxyphenyl)acetamido)-7-fluoro-2-hydroxy-3,4-dihydro-2H-benzo[e][1,2]oxaborinine-8-carboxylic acid]	< 10	2 to 4 (≈ 2.46 to 4.92 µM)	2 to 4 (≈ 2.46 to 4.92 µM)	< 1
O=C(NCCCN1CCN(C(=O)NC(C(=O)N[C@H]2Cc3ccc(F)c(C(=O)O)c3OB2O)c2cc(F)c(O)c(O)c2Cl)C(=O)C1=O)c1ccc(O)c(Cl)c1F (stereo partly drawn) [Example 419, (3R)-3-(2-(4-(3-(3-chloro-2-fluoro-4-hydroxybenzamido)propyl)-2,3-dioxopiperazine-1-carboxamido)-2-(2-chloro-5-fluoro-3,4-dihydroxyphenyl)acetamido)-7-fluoro-2-hydroxy-3,4-dihydro-2H-benzo[e][1,2]oxaborinine-8-carboxylic acid]	< 10	2 to 4 (≈ 2.46 to 4.92 µM)	2 to 4 (≈ 2.46 to 4.92 µM)	2 to 4 (≈ 2.46 to 4.92 µM)
